The values that follow come from ChEMBL document CHEMBL1201862, “PubChem BioAssay data set” (2004).

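Each compound was tested at five concentrations against cells in 96-well plates for 48 hours. At the GI50, growth is halved.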 Active and inactive are the calls of the source. Cut-off read from the data, not from the text of the source: active = GI50 up to about 1.1 µM and inactive = higher.

Some test systems named below: 786-0; A549; DMS-273; HCT-15; HT-29; IGROV-1; K562; LOX IMVI; NCI-H460; OVCAR-8; SF-295; SK-OV-3; SN12C; SNB-78; UACC-257; HOP-92; A498.
What all share (assay): DTP human tumour cell line panel, 48 h

In the case of `COc1ccccc1-n1c(NN)nc2ccc(Br)cc2c1=O`, the GI50 (commonly the concentration that inhibits growth by half) in the assay with 786-0 was 36.9 µM (inactive); in the assay with A549 it was 45.4 µM (inactive); in the assay on DMS-273, 35.1 µM (inactive); in the assay on HCT-15 it was 35.6 µM; with HT-29, 38.2 µM (inactive); with IGROV-1 it was 38.2 µM (inactive). The GI50 was 35.6 µM (inactive) with K562; 27.9 µM (inactive) in the assay with LOX IMVI; 42.8 µM (inactive) in the assay with NCI-H460; 34 µM (inactive) in the assay on OVCAR-8; 34.5 µM (inactive) in the assay on SF-295; 26.5 µM (inactive) in the assay on SK-OV-3. The GI50 with SN12C is 57.9 µM (inactive); in the assay on SNB-78, 47.6 µM (inactive); in the assay on UACC-257 it was 24.4 µM (inactive).
On to `CCN1CC2(C)CC[C@@H](OC)C34[C@@H]2[C@H](OC(C)=O)C2(OCO[C@@]25C[C@H](OC)C2C[C@]3(O)[C@@H]5[C@H]2O)[C@H]14`, for which the GI50 in the assay on 786-0 was 34.2 µM (inactive); in the assay with A549, > 100 µM (inactive); with HOP-92 it was > 100 µM (inactive); with HT-29 it was > 100 µM (inactive); in the assay on LOX IMVI, > 100 µM (inactive); in the assay with NCI-H460, > 100 µM (inactive). For the same molecule, the GI50 in the assay with OVCAR-8, with SF-295, with SN12C, in the assay with SNB-78 and in the assay on UACC-257 was > 100 µM (inactive) in each case.
For the molecule `O=C1Nc2ccc([N+](=O)[O-])cc2/C1=N/Nc1ccc([N+](=O)[O-])cc1`, the GI50 with 786-0 is 4.73 µM (inactive); with A498, 59.3 µM (inactive); in the assay with A549 it was 14.4 µM (inactive); in the assay on DMS-273, 10.7 µM (inactive); in the assay on HCT-15, 21.4 µM; in the assay with HOP-92 it was 9.08 µM (inactive). The GI50 with HT-29 was 21.4 µM (inactive); in the assay on IGROV-1, 48.2 µM (inactive); in the assay with K562, 26.9 µM (inactive); in the assay on LOX IMVI it was 27.5 µM (inactive); in the assay with NCI-H460, 12.8 µM (inactive); in the assay with OVCAR-8, 13.8 µM (inactive). For the same molecule, the GI50 with SF-295 was 11.8 µM (inactive); in the assay with SK-OV-3, 22.2 µM (inactive); in the assay with UACC-257 it was 21.1 µM (inactive).
For the molecule `Cc1cccc(NC(=O)/C(=N\NC(C)(C)C)C2NC(=S)NC2=O)c1C` (stereo unspecified), the GI50 with 786-0 is > 100 µM (inactive); with A498, > 100 µM (inactive); in the assay on A549, > 100 µM (inactive); with HCT-15, > 100 µM; with IGROV-1, > 100 µM (inactive); in the assay with K562, > 100 µM (inactive). The GI50 in the assay with NCI-H460, with OVCAR-8, with SF-295, in the assay with SK-OV-3, in the assay on SNB-78 and in the assay on UACC-257 was > 100 µM (inactive) in each case.
With `CC1(C)CC23C(=O)N(c4ccccc4)C(Nc4ccccc4)=NC2=CC(C#N)=C(C#N)C3O1` (stereo unspecified), the GI50 in the assay on 786-0 is > 100 µM (inactive); in the assay on A498, 26.4 µM (inactive); in the assay on A549, 28.1 µM (inactive); in the assay with HCT-15 it was 64.9 µM; in the assay on HOP-92 it was 11.2 µM (inactive); in the assay with HT-29, 26.9 µM (inactive). In addition, the GI50 with IGROV-1 was > 100 µM (inactive); with K562, 72.4 µM (inactive); in the assay on LOX IMVI, 64.4 µM (inactive); with NCI-H460, 43.8 µM (inactive); in the assay on OVCAR-8 it was 99.5 µM (inactive); with SF-295 it was 46.7 µM (inactive). Moreover, the values for the GI50 in the assay with SN12C, in the assay with SNB-78 and in the assay with UACC-257 were 34.8 µM (inactive), > 100 µM (inactive) and 43.3 µM (inactive), respectively.
On to `O=C(O)C1CCc2nnc(-c3ccccc3)n21` (stereo unspecified), for which the GI50 is > 100 µM (inactive) in the assay with 786-0; > 100 µM (inactive) in the assay on A498; > 100 µM (inactive) in the assay on A549; > 100 µM (inactive) in the assay on DMS-273; > 100 µM with HCT-15; > 100 µM (inactive) in the assay with IGROV-1. The GI50 in the assay with K562, in the assay on NCI-H460, in the assay with OVCAR-8, in the assay on SK-OV-3, with SN12C and in the assay on SNB-78 was > 100 µM (inactive) throughout. Also, the GI50 in the assay with UACC-257 was > 100 µM (inactive).
